Measured values reported in the CheMixHub ionic liquid set.
± gives the uncertainty stated by the source.

Assay: xn = mol fraction of the nth substance listed
Conditions: for electrical conductivity: 298 K, frequency 0.001 MHz

Cn1cc[n+](CCC(=O)O)c1.[Cl-] + O
viscosity [mPa·s], 100 kPa
Conditions	x1 = 0.0009214	x1 = 0.001799	x1 = 0.003593	x1 = 0.005399	x1 = 0.00717	x1 = 0.008993
293.15 K	1.006 ± 0.012	1.022 ± 0.012	1.056 ± 0.012	1.092 ± 0.013	1.128 ± 0.013	1.167 ± 0.014
298.15 K	0.893 ± 0.01	0.907 ± 0.011	0.937 ± 0.011	0.966 ± 0.011	0.995 ± 0.012	1.03 ± 0.012
303.15 K	0.802 ± 0.009	0.814 ± 0.01	0.839 ± 0.01	0.865 ± 0.01	0.89 ± 0.011	0.922 ± 0.011
308.15 K	0.726 ± 0.009	0.735 ± 0.009	0.759 ± 0.009	0.783 ± 0.009	0.807 ± 0.01	0.831 ± 0.01
313.15 K	0.658 ± 0.008	0.668 ± 0.008	0.689 ± 0.008	0.711 ± 0.008	0.73 ± 0.009	0.75 ± 0.009

Cn1cc[n+](CCC[n+]2ccn(C)c2)c1.[Br-].[Br-] + O
viscosity [mPa·s], 101 kPa
Conditions	x1 = 0.0005912	x1 = 0.0006805	x1 = 0.0007474	x1 = 0.0009122	x1 = 0.00129	x1 = 0.00144	x1 = 0.001838	x1 = 0.002094	x1 = 0.002204	x1 = 0.002491
293.15 K	–	–	–	–	–	1.05	1.066	1.071	1.071	1.084
298.15 K	0.905	0.904	0.908	0.913	–	0.935	0.948	0.955	0.955	0.962
303.15 K	0.812	0.811	0.816	–	0.832	0.84	0.85	0.855	0.857	0.859
308.15 K	0.734	0.734	0.739	0.74	0.754	–	0.768	0.77	0.774	0.775
313.15 K	0.669	0.67	0.673	–	–	0.693	0.7	0.702	0.705	0.708

CCCO + O + CCCCCCCCCCCCOS(=O)(=O)[O-].[Na+]
100 kPa
Conditions	electrical conductivity [S/m]
x1 = 0.01544, x3 = 0	0.00015
x1 = 0.02615, x2 = 0.9739	0.00015
x1 = 0.04738, x2 = 0.9526	0.00011
x1 = 0.07176, x2 = 0.9282	0.00012
x1 = 0.1087, x2 = 0.8913	0.00014

CC(=O)[O-].[K+] + O + CCCC[n+]1ccn(C)c1.N#C[S-]
viscosity [mPa·s], 101 kPa
Conditions	298.15 K	308.15 K	313.15 K
x1 = 0.01175, x2 = 0.8368	–	–	4.625 ± 0.064
x1 = 0.1054, x2 = 0.8943	3.195 ± 0.029	2.485 ± 0.023	–

CC(=O)[O-].[K+] + O + CCCC[n+]1ccn(C)c1.O=S(=O)([O-])C(F)(F)F
Conditions	viscosity [mPa·s]
308.15 K, 101 kPa, x1 = 0.01574, x2 = 0.9011	1.515 ± 0.014
